Test results taken from patent US9957253B2, “Triaminopyrimidine compounds useful for preventing or treating malaria” (MMV MEDICINES FOR MALARIA VENTURE, priority 2014, dated 2018).

Key:
[1] = Pharmacokinetics in the blood of infected Pf/SCID mice; assay type: in vivo; settings: 40 mg/kg
Experimental: Pharmacokinetics in the Blood of Infected Pf/SCID Mice:
Peripheral blood samples (25 μl) were taken at different times (0.25, 0.5, 1, 2, 4, 6, 8 and 23 hours), mixed with 25 µl of H2O mili Q and immediately frozen on dry ice. The frozen samples were stored at −80° C. until analysis. Vehicle-treated mice experienced the same blood-sampling regimen. Blood samples were processed by liquid-liquid extraction by mixing 10 μl diluted blood with 180 μl AcN:MeOH (80:20; v:v) mixture. Quantitative analysis by LC/MSMS was performed using UPLC (Waters) and Sciex API4000. The lower limit of quantification (LLOQ) in this assay was 0.005 μg/ml.

P. vivax field isolates = assay: Ex vivo drug susceptibility (schizont maturation) of P. vivax field isolates; assay type: cell-based; settings: Plasmodium vivax; Plasmodium field isolates, ex vivo; read-out: P. vivax IC50
Experimental: (§1) Further, compounds of the invention (Examples 2 and 13) were also tested against field isolates of falciparum and vivax malaria, along with three control antimalarials as described in the protocol below.
(§2) Ex Vivo Activity of Examples 2 and 13 Against Drug Resistant P. falciparum and P. Vivax Field Isolates
(§3) Standard antimalarial drugs chloroquine (CQ), amodiaquine (AQ), piperaquine (PIP), mefloquine (MFQ), and artesunate (AS) and compounds of the invention were prepared as 1 mg/mL stock solutions in H2O or dimethyl sulfoxide (DMSO) according to the manufacturers' instructions. Drug plates were pre-dosed by diluting the compounds in 50% Methanol followed by lyophilisation and stored at 4° C.
(§4) Plasmodium isolates were collected from patients attending malaria clinics in Timika (Papua, Indonesia), a region endemic for multi-drug-resistant strains of P. vivax and P. falciparum. Patients with symptomatic malaria presenting to an outpatient facility were recruited into the study if singly infected with P. falciparum or P. vivax, with a parasitaemia of between 2,000 μl-1 and 80,000 μl-1, and the majority (>80%) of parasites at ring stage of development. Venous blood (5 mL) was collected by venipuncture and after removal of host white blood cells by using cellulose (Sigma-Aldrich, Australia) filtration, packed infected red blood cells (iRBCs) were used for the ex vivo drug susceptibility assay.
(§5) Drug susceptibility of P. vivax and P. falciparum isolates was measured using a protocol modified from the WHO microtest as described previously (Marfurt et al., 2011, Antimicrob Agents Chemother., 55(9):4461). Two hundred μL of a 2% haematocrit Blood Media Mixture (BMM), consisting of RPMI 1640 medium plus 10% AB+ human serum (P. falciparum) or McCoy's 5 A medium plus 20% AB+ human serum (P. vivax), was added to each well of pre-dosed drug plates containing 11 serial concentrations (2-fold dilutions) of the antimalarials (maximum concentration shown in brackets) CQ (2,992 nM), AQ (158 nM), PIP (1,029 nM), MFQ (338 nM), AS (49 nM), and a compound of the invention (2,146 nM). A candle jar was used to mature the parasites at 37.0° C. for 35-56 hours.
(§6) Thick blood films made from each well were stained with 5% Giemsa solution for 30 minutes and examined microscopically. The number of schizonts per 200 asexual stage parasites was determined for each drug concentration and normalised to the control well. The dose-response data were analysed using nonlinear regression analysis (WinNonLn 4.1, Pharsight Corporation) and the IC50 value derived using an inhibitory sigmoid Emax model. […] Drug plate quality was assured by running schizont maturation assays (two independent experiments) with the chloroquine-resistant strain K1 and the chloroquine-sensitive strain FC27.
(§7) For microscopy slide reading QC, two randomly selected drugs per isolate were read by a second microscopist. […] If necessary, discrepant results were resolved by a third reading by an expert microscopist.

[2] = test system: P. falciparum field isolates; assay: Ex vivo drug susceptibility (schizont maturation) of P. falciparum field isolates; assay type: cell-based; settings: Plasmodium falciparum; Plasmodium field isolates, ex vivo; read-out: P. falciparum IC50
Experimental: as §1, §2, §3, §4, §5, §6, §7

In the case of Cc1nc(Nc2ncc(N3CCN(C)[C@H](C)C3)c(Nc3cc(C)n(C)n3)n2)cc(C2CC2)c1F [Example 13, (R)—N2-(4-cyclopropyl-5-fluoro-6-methylpyridin-2-yl)-N4-(1,5-dimethyl-1H-pyrazol-3-yl)-5-(3,4-dimethylpiperazin-1-yl)pyrimidine-2,4-diamine], the “Blood Cmin (minimum parasiticidal concentration, MPC)” value [1] is reported as 40 nM, the IC50 (P. vivax field isolates) is reported as 85.6 nM and the IC50 [2] is reported as 74.6 nM.
